From ChEMBL document CHEMBL3286148, “Aminoazabenzimidazoles, a novel class of orally active antimalarial agents” (J Med Chem, 2014)
Values after ≈ are worked out from the molar mass of the structure shown.

Assays:
[1] = AUC (0 to 23 hrs) in Plasmodium falciparum 3D70087/N9 infected NODscidIL2Rgamma-null mouse at 10 mg/kg, po by LC-MS/MS analysis; type: ADME, organism-based; design: time < 23 hr, dose 10 mg/kg, route oral; conditions: plasma
[2] = target: Cytochrome P450 2D6 (Homo sapiens, UniProt P10635); experiment: Inhibition of CYP2D6 (unknown origin); type: ADME
[3] = Fraction unbound in human plasma; type: ADME, cell-free
[4] = system: Plasmodium berghei; experiment: Antiplasmodial activity against Plasmodium berghei ANKA expressing GFP infected in BALB/c mouse assessed as reduction of viable parasites at 50 mg/kg, po qd for 4 days by flow cytometry; type: functional
[5] = Clearance in mouse liver microsomes; type: ADME; conditions: read-out: CLH
[6] = Aqueous solubility of the compound; type: physicochemical; conditions: buffer
[7] = Half life in Wistar rat at 1 mg/kg, iv; type: ADME, organism-based; design: dose 1 mg/kg, route intravenous; conditions: in vivo
[8] = target: T1, Cytochrome P450 1A2 (Homo sapiens, UniProt P05177); experiment: Inhibition of CYP1A2 (unknown origin); type: ADME
T1 sequence (P05177 whole entry): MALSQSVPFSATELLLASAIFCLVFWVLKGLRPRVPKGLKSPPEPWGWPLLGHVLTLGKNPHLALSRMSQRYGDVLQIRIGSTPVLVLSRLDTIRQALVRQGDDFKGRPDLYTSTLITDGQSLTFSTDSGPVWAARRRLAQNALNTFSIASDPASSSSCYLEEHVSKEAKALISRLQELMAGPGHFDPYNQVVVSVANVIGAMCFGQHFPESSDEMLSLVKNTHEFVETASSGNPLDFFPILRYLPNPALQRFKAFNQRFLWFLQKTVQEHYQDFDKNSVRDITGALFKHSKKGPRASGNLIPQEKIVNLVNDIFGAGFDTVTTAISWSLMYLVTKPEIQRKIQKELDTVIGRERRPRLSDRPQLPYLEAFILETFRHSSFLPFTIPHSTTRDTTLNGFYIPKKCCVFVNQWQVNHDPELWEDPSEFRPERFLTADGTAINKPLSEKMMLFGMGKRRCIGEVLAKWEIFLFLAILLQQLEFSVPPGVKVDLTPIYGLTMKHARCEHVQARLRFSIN

[9] = target: Cytochrome P450 2C9 (Homo sapiens, UniProt P11712); experiment: Inhibition of CYP2C9 (unknown origin); type: ADME
[10] = Oral bioavailability in Wistar rat at 5 mg/kg; type: ADME, organism-based; conditions: in vivo
[11] = system: Plasmodium falciparum; experiment: Antiplasmodial activity against Plasmodium falciparum 3D70087/N9 infected in po dosed NODscidIL2Rgamma-null mouse assessed as reduction of parasite level in peripheral blood qd for 4 days by flow cytometry analysis; type: functional; conditions: 96 h
[12] = target: Voltage-gated inwardly rectifying potassium channel KCNH2 (Homo sapiens, UniProt Q12809); experiment: Inhibition of human ERG
[13] = Clearance in human liver microsomes; type: ADME; conditions: read-out: CLH
[14] = system: Plasmodium falciparum; experiment: microbe, parasite or virus in culture; conditions: NF54, 72 h
[15] = system: Mus musculus; experiment: AUC at ED90 in po dosed Plasmodium falciparum 3D70087/N9 infected NODscidIL2Rgamma-null mouse after 7 days; type: ADME, organism-based, Plasma; conditions: in vivo, 168 h
[16] = Tmax in Plasmodium falciparum 3D70087/N9 infected NODscidIL2Rgamma-null mouse at 3 mg/kg, po by LC-MS/MS analysis; type: ADME, organism-based; design: dose 3 mg/kg, route oral; conditions: in vivo
[17] = AUC (0 to 23 hrs) in Plasmodium falciparum 3D70087/N9 infected NODscidIL2Rgamma-null mouse at 50 mg/kg, po by LC-MS/MS analysis; type: ADME, organism-based; design: time < 23 hr, dose 50 mg/kg, route oral; conditions: plasma
[18] = system: Mus musculus; experiment: AUC (0 to 23 hrs) in Plasmodium falciparum 3D70087/N9 infected NODscidIL2Rgamma-null mouse at 30 mg/kg, po by LC-MS/MS analysis; conditions: in vivo
[19] = AUC (0 to 23 hrs) in Plasmodium falciparum 3D70087/N9 infected NODscidIL2Rgamma-null mouse at 30 mg/kg, po by LC-MS/MS analysis; type: ADME, organism-based; design: time < 23 hr, dose 30 mg/kg, route oral; conditions: plasma
[20] = Selectivity index, ratio of IC50 for human A549 cells to IC50 for Plasmodium falciparum; type: toxicity, cell-based; conditions: read-out: Ratio IC50
[21] = target: Cytochrome P450 3A4 (Homo sapiens, UniProt P08684); experiment: Inhibition of CYP3A4 (unknown origin); type: ADME
[22] = Cmax in Wistar rat at 5 mg/kg, po; type: ADME, organism-based; design: dose 5 mg/kg, route oral; conditions: in vivo
[23] = Half life in Wistar rat at 5 mg/kg, po; type: ADME, organism-based; design: dose 5 mg/kg, route oral; conditions: in vivo
[24] = Cmax in Plasmodium falciparum 3D70087/N9 infected NODscidIL2Rgamma-null mouse at 50 mg/kg, po by LC-MS/MS analysis; type: ADME, organism-based; design: dose 50 mg/kg, route oral; conditions: in vivo
[25] = system: Mus musculus; experiment: Dose normalized Cmax in Plasmodium falciparum 3D70087/N9 infected NODscidIL2Rgamma-null mouse at 30 mg/kg, po by LC-MS/MS analysis; type: ADME, organism-based; design: dose 30 mg/kg, route oral; conditions: in vivo
[26] = system: Plasmodium falciparum; experiment: microbe, parasite or virus in culture; conditions: K1, 72 h
[27] = Clearance in rat hepatocytes assessed per 1E6 cells; type: ADME, cell-based, Hepatocyte; conditions: read-out: CLH
[28] = Tmax in Plasmodium falciparum 3D70087/N9 infected NODscidIL2Rgamma-null mouse at 30 mg/kg, po by LC-MS/MS analysis; type: ADME, organism-based; design: dose 30 mg/kg, route oral; conditions: in vivo
[29] = Clearance in Wistar rat at 1 mg/kg, iv; type: ADME, organism-based; design: dose 1 mg/kg, route intravenous; conditions: in vivo
[30] = Cmax in Plasmodium falciparum 3D70087/N9 infected NODscidIL2Rgamma-null mouse at 10 mg/kg, po by LC-MS/MS analysis; type: ADME, organism-based; design: dose 10 mg/kg, route oral; conditions: in vivo
[31] = system: Mus musculus; experiment: Dose normalized Cmax in Plasmodium falciparum 3D70087/N9 infected NODscidIL2Rgamma-null mouse at 50 mg/kg, po by LC-MS/MS analysis; type: ADME, organism-based; design: dose 50 mg/kg, route oral; conditions: in vivo
[32] = system: Plasmodium berghei; experiment: Antiplasmodial activity against Plasmodium berghei ANKA expressing GFP infected in BALB/c mouse assessed as host survival days at 50 mg/kg, po qd for 4 days; type: functional
[33] = target: Cytochrome P450 2C19 (Homo sapiens, UniProt P33261); experiment: Inhibition of CYP2C19 (unknown origin); type: ADME
[34] = Tmax in Plasmodium falciparum 3D70087/N9 infected NODscidIL2Rgamma-null mouse at 10 mg/kg, po by LC-MS/MS analysis; type: ADME, organism-based; design: dose 10 mg/kg, route oral; conditions: in vivo
[35] = Cmax in Plasmodium falciparum 3D70087/N9 infected NODscidIL2Rgamma-null mouse at 30 mg/kg, po by LC-MS/MS analysis; type: ADME, organism-based; design: dose 30 mg/kg, route oral; conditions: in vivo
[36] = system: Mus musculus; experiment: Dose normalized AUC (0 to 23 hrs) in Plasmodium falciparum 3D70087/N9 infected NODscidIL2Rgamma-null mouse at 3 mg/kg, po by LC-MS/MS analysis; type: ADME, organism-based; design: dose 3 mg/kg, route oral; conditions: in vivo
[37] = AUC in Wistar rat at 1 mg/kg, iv; type: ADME, organism-based; design: dose 1 mg/kg, route intravenous; conditions: plasma
[38] = Tmax in Plasmodium falciparum 3D70087/N9 infected NODscidIL2Rgamma-null mouse at 50 mg/kg, po by LC-MS/MS analysis; type: ADME, organism-based; design: dose 50 mg/kg, route oral; conditions: in vivo
[39] = Volume of distribution at steady state in Wistar rat at 1 mg/kg, iv; type: ADME, organism-based; design: dose 1 mg/kg, route intravenous; conditions: in vivo, read-out: Vdss
[40] = system: Mus musculus; experiment: AUC (0 to 23 hrs) in Plasmodium falciparum 3D70087/N9 infected NODscidIL2Rgamma-null mouse at 10 mg/kg, po by LC-MS/MS analysis; conditions: in vivo
[41] = Lipophilicity, log D of the compound; type: physicochemical; conditions: octanol/water
[42] = Cmax in Plasmodium falciparum 3D70087/N9 infected NODscidIL2Rgamma-null mouse at 3 mg/kg, po by LC-MS/MS analysis; type: ADME, organism-based; design: dose 3 mg/kg, route oral; conditions: in vivo
[43] = AUC (0 to 23 hrs) in Plasmodium falciparum 3D70087/N9 infected NODscidIL2Rgamma-null mouse at 3 mg/kg, po by LC-MS/MS analysis; type: ADME, organism-based; design: time < 23 hr, dose 3 mg/kg, route oral; conditions: plasma
[44] = system: Mus musculus; experiment: Dose normalized Cmax in Plasmodium falciparum 3D70087/N9 infected NODscidIL2Rgamma-null mouse at 10 mg/kg, po by LC-MS/MS analysis; type: ADME, organism-based; design: dose 10 mg/kg, route oral; conditions: in vivo
[45] = system: Mus musculus; experiment: AUC (0 to 23 hrs) in Plasmodium falciparum 3D70087/N9 infected NODscidIL2Rgamma-null mouse at 50 mg/kg, po by LC-MS/MS analysis; conditions: in vivo
[46] = system: Mus musculus; experiment: Dose normalized Cmax in Plasmodium falciparum 3D70087/N9 infected NODscidIL2Rgamma-null mouse at 3 mg/kg, po by LC-MS/MS analysis; type: ADME, organism-based; design: dose 3 mg/kg, route oral; conditions: in vivo

Sequence of Voltage-gated inwardly rectifying potassium channel KCNH2 (Q12809 whole entry): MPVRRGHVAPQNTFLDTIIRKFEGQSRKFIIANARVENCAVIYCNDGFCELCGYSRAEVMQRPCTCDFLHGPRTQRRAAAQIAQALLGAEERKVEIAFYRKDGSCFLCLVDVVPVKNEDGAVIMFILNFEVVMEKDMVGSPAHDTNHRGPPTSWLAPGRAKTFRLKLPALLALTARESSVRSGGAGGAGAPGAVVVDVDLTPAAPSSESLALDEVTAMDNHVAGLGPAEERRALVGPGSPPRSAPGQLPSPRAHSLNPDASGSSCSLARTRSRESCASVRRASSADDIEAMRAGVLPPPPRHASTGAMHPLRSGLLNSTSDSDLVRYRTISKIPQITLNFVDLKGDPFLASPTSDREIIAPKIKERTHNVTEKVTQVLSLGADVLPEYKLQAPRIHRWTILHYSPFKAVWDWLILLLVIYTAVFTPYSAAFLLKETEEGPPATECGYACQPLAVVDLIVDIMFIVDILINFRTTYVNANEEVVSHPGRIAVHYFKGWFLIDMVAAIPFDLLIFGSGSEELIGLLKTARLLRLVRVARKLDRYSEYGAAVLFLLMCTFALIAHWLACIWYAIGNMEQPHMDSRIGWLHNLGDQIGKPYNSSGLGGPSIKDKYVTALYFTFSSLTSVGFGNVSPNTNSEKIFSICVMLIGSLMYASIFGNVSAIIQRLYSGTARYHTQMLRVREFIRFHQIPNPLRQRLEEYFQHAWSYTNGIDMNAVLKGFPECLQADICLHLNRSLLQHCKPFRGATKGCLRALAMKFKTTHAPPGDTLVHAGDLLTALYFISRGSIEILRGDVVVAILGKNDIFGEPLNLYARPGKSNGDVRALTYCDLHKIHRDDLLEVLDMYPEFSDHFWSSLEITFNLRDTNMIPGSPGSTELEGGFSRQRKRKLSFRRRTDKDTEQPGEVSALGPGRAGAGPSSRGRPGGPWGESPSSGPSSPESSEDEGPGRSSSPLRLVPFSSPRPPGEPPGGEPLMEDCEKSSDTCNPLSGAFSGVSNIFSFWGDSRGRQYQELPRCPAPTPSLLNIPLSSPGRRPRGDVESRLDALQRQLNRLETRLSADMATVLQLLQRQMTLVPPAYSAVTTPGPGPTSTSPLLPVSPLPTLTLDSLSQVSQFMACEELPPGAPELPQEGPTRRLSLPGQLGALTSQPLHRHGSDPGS
Sequence of Cytochrome P450 3A4 (P08684 whole entry): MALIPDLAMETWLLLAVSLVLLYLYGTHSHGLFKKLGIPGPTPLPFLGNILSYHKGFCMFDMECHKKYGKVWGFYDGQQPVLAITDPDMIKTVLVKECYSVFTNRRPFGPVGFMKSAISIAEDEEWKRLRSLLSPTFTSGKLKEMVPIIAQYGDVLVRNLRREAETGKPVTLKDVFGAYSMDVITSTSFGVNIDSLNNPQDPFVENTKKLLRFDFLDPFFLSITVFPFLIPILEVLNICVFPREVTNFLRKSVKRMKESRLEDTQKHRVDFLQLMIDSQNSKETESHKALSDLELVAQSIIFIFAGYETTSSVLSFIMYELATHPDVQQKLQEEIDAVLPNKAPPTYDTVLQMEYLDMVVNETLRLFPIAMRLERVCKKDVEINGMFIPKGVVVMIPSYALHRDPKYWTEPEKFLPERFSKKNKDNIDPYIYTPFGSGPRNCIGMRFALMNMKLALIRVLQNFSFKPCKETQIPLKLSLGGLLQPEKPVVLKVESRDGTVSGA
Sequence of Cytochrome P450 2C9 (P11712 whole entry): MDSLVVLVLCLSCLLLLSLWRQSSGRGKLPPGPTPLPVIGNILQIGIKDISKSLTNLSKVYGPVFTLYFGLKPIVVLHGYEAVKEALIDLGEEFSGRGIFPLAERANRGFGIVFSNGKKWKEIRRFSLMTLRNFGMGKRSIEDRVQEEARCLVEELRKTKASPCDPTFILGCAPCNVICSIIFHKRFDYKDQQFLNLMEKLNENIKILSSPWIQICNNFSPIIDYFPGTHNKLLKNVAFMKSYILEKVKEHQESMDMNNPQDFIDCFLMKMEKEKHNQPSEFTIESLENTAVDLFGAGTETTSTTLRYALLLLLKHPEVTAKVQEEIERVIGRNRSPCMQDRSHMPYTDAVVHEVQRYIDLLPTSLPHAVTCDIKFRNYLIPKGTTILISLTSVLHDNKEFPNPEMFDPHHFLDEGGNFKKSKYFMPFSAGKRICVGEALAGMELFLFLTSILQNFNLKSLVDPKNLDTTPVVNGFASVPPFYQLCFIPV
Sequence of Cytochrome P450 2D6 (P10635 whole entry): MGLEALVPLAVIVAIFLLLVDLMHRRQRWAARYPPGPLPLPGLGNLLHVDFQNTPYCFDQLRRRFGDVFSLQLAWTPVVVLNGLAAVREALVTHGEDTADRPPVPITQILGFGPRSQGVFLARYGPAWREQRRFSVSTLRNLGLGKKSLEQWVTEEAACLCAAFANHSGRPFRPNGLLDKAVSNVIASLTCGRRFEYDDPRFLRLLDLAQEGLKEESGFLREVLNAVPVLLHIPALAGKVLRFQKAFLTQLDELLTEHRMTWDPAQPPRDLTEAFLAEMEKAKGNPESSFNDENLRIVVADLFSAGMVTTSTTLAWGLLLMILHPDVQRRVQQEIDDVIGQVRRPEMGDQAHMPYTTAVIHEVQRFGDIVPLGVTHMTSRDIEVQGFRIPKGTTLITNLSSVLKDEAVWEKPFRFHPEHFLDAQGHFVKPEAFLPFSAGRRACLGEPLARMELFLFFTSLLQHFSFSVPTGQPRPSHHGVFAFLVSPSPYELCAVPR
Sequence of Cytochrome P450 2C19 (P33261 whole entry): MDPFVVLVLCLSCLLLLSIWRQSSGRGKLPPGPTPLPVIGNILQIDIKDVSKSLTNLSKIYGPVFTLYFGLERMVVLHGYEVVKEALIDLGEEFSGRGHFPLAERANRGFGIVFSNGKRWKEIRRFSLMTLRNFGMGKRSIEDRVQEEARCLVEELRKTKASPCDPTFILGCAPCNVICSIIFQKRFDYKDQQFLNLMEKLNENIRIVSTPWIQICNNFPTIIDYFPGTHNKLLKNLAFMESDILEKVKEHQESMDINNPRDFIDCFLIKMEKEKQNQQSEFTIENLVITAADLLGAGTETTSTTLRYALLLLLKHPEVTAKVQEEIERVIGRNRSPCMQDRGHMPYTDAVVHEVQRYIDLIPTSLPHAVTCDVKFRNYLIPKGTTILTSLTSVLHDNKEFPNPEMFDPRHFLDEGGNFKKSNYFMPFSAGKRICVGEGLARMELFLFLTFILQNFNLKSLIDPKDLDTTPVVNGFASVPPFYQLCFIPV

With CC(Oc1ccc2nc(N)n(CC(O)c3ccc(C(F)(F)F)cc3Cl)c2n1)C(F)(F)F (racemic) the AUC(0-t) at 23 h [1] was 2700 ng·h/mL, the IC50 [2] was 28.3 µM and the fraction unbound [3] was under 0.01. The Activity [4] was 94%, the microsomal CLint [5] was 19 µL/min/mg and the solubility [6] was 5 µM (≈ 2.34 µg/mL). It also gave a half-life [7] of 1.76 h, an IC50 [8] of over 30 µM and an IC50 [9] of 22.9 µM. For the same compound, the bioavailability [10] was 100%, the ED90 [11] was 28.6 mg/kg and the IC50 [12] was over 33.3 µM. It also gave a microsomal CLint [13] of 32 µL/min/mg, an IC50 [14] of 0.04 µM and an AUC [15] of 6.55 ug.hr/ml/day. The Tmax [16] was 0.5 h, the AUC(0-t) at 23 h [17] was 10400 ng·h/mL and the AUC [18] was 2310 ng·h/mL. For the same compound, the AUC(0-t) at 23 h [19] was 6930 ng·h/mL, the selectivity ratio [20] was over 325 and the IC50 [21] was 20.3 µM. It also gave a Cmax [22] of 2040 nM, a half-life [23] of 7.16 h and a Cmax [24] of 1070 ng/mL. The Cmax/dose [25] was 0.022 µg/mL/mg/kg, the IC50 [26] was 0.005 µM and the hepatocyte CLint [27] was 43 µL/min/1e6 cells. It also gave a Tmax [28] of 6 h, a clearance [29] of 22.6 mL/min/kg and a Cmax [30] of 360 ng/mL. For the same compound, the Cmax/dose [31] was 0.021 µg/mL/mg/kg, the Survival [32] was 12 days and the IC50 [33] was 4.7 µM. It also gave a Tmax [34] of 2 h, a Cmax [35] of 680 ng/mL and an AUC/dose [36] of 0.16 µg·h/mL/mg/kg. It also gave an AUC [37] of 1.66 µM·h, a Tmax [38] of 4 h and a Vd [39] of 2.49 L/kg. It also gave an AUC [40] of 900 ng·h/mL, a logD [41] of over 4.5 and a Cmax [42] of 600 ng/mL. The AUC(0-t) at 23 h [43] was 480 ng·h/mL, the Cmax/dose [44] was 0.035 µg/mL/mg/kg and the AUC [45] was 3480 ng·h/mL. It also gave a Cmax/dose [46] of 0.019 µg/mL/mg/kg.
